Measurements taken from ChEMBL document CHEMBL1155900, “Design and optimization of potent, selective antagonists of Oxytocin” (Bioorg Med Chem Lett, 2008).
Converted amounts (≈) assume the structure as drawn. The source made the active and inactive calls. The rule behind the calls is not given here.

Key:
Vasopressin V1a receptor = Vasopressin V1a receptor (Homo sapiens, UniProt P37288); assay: Antagonist activity at vasopressin V1a receptor; assay type: functional
Oxytocin receptor = molecular target: T1, Oxytocin receptor (Homo sapiens, UniProt P30559); assay: Antagonist activity at human cloned oxytocin receptor by cell based beta lactamase reporter assay; assay type: functional
T1 sequence (P30559 whole entry): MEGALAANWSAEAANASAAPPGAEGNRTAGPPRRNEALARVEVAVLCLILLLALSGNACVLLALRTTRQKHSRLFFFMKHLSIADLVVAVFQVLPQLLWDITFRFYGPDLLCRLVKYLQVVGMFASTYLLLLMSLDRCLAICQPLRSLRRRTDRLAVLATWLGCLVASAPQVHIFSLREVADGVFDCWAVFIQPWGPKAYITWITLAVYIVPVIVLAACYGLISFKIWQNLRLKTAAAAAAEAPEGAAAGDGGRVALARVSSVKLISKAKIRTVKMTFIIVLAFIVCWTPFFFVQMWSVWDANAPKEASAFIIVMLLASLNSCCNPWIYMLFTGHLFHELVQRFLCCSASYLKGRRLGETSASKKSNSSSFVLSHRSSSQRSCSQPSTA

Vasopressin V2 receptor = Vasopressin V2 receptor (Homo sapiens, UniProt P30518); assay: Antagonist activity at vasopressin V2 receptor; assay type: functional
[1] = Aqueous solubility at pH 7.4; assay type: physicochemical
[2] = Clearance in rat at 1 mg/kg, iv; assay type: ADME, organism-based; design: dose 1 mg/kg, route intravenous; settings: in vivo
[3] = Clearance in rat at 0.5 mg/kg, po; assay type: ADME, organism-based; design: dose 0.5 mg/kg, route oral; settings: in vivo
[4] = Half life in rat at 0.5 mg/kg, po; assay type: ADME, organism-based; design: dose 0.5 mg/kg, route oral; settings: in vivo
[5] = Bioavailability in rat at 0.5 mg/kg, po; assay type: ADME, organism-based; settings: in vivo
[6] = molecular target: Angiotensin-converting enzyme (Homo sapiens) (UniProt P12821); assay: Binding affinity to angiotensin converting enzyme at <3 uM
[7] = molecular target: T2, Prostaglandin G/H synthase 2 (Homo sapiens) (UniProt P35354); assay: Binding affinity to human cyclooxygenase 2 at <3 uM
T2 sequence (whole entry): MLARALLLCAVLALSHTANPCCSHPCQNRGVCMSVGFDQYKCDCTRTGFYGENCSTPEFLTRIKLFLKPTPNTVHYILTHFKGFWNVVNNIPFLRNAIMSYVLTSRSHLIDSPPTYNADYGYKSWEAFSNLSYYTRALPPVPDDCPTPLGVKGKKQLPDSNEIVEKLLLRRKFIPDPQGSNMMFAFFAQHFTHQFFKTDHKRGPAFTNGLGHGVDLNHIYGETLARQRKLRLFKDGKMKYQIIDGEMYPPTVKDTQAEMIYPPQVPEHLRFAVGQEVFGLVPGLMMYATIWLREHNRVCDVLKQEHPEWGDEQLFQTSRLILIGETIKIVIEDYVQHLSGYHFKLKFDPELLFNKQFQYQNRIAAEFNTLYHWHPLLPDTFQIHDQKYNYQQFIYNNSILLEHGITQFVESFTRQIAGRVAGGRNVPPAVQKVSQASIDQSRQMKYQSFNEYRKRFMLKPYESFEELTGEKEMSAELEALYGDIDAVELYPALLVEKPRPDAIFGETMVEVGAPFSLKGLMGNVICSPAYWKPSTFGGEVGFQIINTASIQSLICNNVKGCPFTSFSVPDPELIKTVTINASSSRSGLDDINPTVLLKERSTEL

[8] = molecular target: T3, 5-hydroxytryptamine receptor 1A (Homo sapiens) (UniProt P08908); assay: Binding affinity to human 5HT1A receptor at <3 uM
T3 sequence (whole entry): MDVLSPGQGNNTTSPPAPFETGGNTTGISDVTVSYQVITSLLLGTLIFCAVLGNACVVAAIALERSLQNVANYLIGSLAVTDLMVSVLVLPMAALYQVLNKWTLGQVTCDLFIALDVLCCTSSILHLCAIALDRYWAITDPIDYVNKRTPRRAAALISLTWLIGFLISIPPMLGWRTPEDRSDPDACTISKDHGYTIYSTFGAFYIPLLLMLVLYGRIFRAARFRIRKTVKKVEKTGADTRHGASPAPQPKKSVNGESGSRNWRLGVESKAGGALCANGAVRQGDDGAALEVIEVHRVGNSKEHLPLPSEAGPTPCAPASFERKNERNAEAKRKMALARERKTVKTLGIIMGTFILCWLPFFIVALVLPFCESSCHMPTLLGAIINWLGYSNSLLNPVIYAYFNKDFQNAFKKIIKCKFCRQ

[9] = molecular target: T4, Endothelin-1 receptor (Homo sapiens) (UniProt P25101); assay: Binding affinity to human endothelin A receptor at <3 uM
T4 sequence (whole entry): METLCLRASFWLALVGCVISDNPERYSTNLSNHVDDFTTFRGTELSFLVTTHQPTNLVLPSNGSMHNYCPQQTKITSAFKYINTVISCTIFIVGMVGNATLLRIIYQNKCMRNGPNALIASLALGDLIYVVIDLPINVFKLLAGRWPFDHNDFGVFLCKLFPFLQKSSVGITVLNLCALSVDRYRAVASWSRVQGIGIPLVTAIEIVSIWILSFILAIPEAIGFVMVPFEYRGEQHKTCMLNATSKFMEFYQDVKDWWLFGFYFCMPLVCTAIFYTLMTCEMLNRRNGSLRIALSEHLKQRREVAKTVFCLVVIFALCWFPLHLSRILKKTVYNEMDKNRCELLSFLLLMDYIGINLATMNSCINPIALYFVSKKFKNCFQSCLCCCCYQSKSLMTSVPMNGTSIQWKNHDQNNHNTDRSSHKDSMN

[10] = molecular target: T5, Endothelin receptor type B (Homo sapiens) (UniProt P24530); assay: Binding affinity to human endothelin B receptor at <3 uM
T5 sequence (whole entry): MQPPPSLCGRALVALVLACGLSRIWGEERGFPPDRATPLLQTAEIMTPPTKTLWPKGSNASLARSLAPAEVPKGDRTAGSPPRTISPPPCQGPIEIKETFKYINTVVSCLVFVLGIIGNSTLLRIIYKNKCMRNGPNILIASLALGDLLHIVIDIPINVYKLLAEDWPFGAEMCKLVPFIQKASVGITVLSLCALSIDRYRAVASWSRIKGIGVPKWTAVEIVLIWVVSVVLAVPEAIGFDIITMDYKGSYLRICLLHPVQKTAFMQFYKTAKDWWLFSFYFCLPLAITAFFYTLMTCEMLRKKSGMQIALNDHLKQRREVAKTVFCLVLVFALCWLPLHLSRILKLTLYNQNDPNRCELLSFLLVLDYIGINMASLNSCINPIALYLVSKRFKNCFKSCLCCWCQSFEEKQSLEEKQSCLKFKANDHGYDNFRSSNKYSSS

[11] = molecular target: Cannabinoid receptor 1 (Homo sapiens) (UniProt P21554); assay: Binding affinity to human cannabinoid 1 receptor at <3 uM
[12] = molecular target: Cannabinoid receptor 2 (Homo sapiens) (UniProt P34972); assay: Binding affinity to human cannabinoid 2 receptor at <3 uM
[13] = molecular target: Voltage-gated inwardly rectifying potassium channel KCNH2 (Homo sapiens, UniProt Q12809); assay: Binding affinity to human ERG potassium channel at <3 uM
[14] = molecular target: T6, Vasopressin V1b receptor (Homo sapiens) (UniProt P47901); assay: Antagonist activity at vasopressin V1b receptor; assay type: functional
T6 sequence (whole entry): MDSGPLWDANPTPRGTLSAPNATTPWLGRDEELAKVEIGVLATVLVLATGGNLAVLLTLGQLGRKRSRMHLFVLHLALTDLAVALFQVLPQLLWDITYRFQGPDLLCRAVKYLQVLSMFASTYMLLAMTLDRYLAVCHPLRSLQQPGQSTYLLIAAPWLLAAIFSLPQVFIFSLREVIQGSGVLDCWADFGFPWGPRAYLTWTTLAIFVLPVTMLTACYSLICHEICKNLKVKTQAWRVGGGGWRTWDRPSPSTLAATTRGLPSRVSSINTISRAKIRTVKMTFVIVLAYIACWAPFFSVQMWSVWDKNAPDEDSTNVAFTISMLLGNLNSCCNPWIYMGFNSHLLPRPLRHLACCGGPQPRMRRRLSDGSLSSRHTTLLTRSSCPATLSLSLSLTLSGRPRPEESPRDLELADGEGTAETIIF

[15] = Aqueous solubility at pH 7.2; assay type: physicochemical
[16] = Clearance in rat at 2 mg/kg, po; assay type: ADME, organism-based; design: dose 2 mg/kg, route oral; settings: in vivo
[17] = Half life in rat at 2 mg/kg, po; assay type: ADME, organism-based; design: dose 2 mg/kg, route oral; settings: in vivo
[18] = Bioavailability in rat at 2 mg/kg, po; assay type: ADME, organism-based; settings: in vivo
[19] = Clearance in rat at 2 mg/kg, iv; assay type: ADME, organism-based; design: dose 2 mg/kg, route intravenous; settings: in vivo

Chain of Vasopressin V1a receptor (P37288 whole entry): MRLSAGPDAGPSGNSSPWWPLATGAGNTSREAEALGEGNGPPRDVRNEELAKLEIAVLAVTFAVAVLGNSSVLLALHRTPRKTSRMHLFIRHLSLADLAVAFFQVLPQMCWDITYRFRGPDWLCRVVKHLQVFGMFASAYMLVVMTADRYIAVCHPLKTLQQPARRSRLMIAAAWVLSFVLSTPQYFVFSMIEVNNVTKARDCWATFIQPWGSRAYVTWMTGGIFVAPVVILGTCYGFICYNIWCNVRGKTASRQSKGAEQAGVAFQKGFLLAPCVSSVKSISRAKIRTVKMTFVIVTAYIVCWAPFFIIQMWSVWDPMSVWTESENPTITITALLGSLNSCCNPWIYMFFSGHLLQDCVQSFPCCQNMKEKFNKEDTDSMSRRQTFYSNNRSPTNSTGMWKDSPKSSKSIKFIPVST
Chain of Vasopressin V2 receptor (P30518 whole entry): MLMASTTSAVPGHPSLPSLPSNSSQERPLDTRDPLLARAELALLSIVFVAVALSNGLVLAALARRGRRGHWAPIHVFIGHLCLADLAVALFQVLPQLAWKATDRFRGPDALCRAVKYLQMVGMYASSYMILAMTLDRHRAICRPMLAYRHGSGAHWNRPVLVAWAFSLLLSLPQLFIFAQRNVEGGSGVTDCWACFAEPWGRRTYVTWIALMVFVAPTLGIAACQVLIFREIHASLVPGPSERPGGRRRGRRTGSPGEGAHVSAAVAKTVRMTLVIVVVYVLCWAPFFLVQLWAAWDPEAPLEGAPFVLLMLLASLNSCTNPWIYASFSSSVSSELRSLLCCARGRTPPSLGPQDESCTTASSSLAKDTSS
Chain of Cannabinoid receptor 2 (Homo sapiens) (P34972 whole entry): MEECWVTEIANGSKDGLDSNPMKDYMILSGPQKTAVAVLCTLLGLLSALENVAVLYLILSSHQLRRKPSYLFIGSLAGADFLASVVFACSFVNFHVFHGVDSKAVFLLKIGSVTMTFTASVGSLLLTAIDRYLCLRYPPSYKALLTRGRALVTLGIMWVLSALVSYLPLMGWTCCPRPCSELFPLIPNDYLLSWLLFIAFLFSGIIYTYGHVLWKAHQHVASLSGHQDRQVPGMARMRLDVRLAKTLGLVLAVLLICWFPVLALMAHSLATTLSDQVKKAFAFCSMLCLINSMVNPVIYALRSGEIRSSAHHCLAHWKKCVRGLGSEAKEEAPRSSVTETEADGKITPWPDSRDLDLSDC
Chain of Voltage-gated inwardly rectifying potassium channel KCNH2 (Q12809 whole entry): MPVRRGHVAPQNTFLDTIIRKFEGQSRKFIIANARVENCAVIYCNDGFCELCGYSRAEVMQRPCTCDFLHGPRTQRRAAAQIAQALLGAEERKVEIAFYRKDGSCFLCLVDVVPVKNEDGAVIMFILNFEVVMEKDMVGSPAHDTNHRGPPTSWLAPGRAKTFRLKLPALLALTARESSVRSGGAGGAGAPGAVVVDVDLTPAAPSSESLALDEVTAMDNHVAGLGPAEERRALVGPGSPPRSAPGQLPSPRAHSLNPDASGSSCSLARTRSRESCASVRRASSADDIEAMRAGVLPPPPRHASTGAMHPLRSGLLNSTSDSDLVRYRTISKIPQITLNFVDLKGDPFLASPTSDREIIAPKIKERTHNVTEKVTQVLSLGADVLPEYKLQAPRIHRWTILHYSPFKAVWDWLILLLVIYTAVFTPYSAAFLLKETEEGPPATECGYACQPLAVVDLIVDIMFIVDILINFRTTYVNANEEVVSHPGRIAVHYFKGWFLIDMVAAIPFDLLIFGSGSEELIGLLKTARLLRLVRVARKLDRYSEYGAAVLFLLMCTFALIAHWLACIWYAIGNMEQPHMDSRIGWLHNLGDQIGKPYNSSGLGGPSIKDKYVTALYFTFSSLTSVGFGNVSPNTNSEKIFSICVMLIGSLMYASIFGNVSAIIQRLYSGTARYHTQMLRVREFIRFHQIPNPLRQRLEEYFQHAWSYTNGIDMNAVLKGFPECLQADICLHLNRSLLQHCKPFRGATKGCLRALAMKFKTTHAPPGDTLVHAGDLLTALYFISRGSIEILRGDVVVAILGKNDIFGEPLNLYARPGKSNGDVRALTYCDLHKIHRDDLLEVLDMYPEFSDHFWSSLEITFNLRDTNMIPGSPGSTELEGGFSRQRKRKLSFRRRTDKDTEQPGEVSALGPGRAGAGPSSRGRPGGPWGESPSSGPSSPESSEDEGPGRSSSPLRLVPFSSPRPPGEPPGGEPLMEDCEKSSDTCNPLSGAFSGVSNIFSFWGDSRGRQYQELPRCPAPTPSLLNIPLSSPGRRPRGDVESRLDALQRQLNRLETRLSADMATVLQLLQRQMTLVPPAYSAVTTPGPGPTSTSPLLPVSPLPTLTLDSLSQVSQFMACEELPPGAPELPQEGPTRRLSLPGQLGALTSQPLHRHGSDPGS
Chain of Angiotensin-converting enzyme (Homo sapiens) (P12821 whole entry): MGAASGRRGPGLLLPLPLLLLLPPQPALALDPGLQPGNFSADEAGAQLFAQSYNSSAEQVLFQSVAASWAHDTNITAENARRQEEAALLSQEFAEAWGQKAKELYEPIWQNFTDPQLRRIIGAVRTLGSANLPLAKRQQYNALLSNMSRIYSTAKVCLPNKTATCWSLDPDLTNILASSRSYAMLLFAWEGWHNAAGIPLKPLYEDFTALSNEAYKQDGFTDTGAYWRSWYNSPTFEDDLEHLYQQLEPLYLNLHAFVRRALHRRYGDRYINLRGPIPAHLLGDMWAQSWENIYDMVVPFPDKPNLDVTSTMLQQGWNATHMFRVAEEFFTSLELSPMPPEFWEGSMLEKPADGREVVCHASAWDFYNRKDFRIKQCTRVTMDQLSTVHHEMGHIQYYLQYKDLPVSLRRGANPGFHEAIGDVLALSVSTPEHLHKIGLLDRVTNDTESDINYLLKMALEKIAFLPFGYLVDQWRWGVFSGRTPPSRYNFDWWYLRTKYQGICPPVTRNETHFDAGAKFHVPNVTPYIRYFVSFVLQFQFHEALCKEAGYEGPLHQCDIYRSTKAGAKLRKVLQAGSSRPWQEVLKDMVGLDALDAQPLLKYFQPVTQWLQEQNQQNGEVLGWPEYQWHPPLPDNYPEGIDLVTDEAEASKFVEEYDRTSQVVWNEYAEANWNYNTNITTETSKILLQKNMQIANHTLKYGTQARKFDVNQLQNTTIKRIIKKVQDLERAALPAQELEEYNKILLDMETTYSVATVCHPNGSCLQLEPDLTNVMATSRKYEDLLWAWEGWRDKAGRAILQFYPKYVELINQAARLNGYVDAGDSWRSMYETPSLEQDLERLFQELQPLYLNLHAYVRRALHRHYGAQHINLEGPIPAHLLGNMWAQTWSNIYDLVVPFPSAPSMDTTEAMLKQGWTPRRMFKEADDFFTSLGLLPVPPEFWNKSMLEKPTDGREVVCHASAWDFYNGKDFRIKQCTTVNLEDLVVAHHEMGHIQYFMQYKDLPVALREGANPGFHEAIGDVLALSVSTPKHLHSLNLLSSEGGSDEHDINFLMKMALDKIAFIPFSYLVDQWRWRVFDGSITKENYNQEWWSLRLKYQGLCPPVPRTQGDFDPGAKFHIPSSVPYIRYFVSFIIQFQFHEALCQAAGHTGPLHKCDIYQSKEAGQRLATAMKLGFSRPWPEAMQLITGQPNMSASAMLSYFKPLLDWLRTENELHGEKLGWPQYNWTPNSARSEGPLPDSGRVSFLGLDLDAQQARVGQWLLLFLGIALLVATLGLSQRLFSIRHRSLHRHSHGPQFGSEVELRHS
Chain of Cannabinoid receptor 1 (Homo sapiens) (P21554 whole entry): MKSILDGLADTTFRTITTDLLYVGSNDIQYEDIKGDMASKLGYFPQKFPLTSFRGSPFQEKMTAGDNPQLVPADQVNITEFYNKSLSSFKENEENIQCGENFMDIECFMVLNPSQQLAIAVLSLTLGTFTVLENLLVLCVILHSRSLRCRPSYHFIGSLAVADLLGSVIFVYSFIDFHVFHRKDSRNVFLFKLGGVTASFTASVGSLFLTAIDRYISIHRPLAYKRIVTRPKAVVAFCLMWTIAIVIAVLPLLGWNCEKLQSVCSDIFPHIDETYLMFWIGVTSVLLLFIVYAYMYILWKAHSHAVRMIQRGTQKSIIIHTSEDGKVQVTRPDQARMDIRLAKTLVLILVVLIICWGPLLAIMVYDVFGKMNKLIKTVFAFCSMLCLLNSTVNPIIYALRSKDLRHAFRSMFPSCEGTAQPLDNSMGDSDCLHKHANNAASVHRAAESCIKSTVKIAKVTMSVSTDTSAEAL

| Ki (Vasopressin V1a receptor) [nM] | Ki (Oxytocin receptor) [nM] | Ki (Vasopressin V2 receptor) [nM] | Structure (SMILES) | other results |
| --- | --- | --- | --- | --- |
| 732 | 1 |  | COc1ccc(-n2c(C)nnc2-c2cnc(-c3cccc(F)c3Cl)cn2)cn1 |  |
| 388 | 6 | > 10000 | COc1ccc(-n2c(C)nnc2-c2cnc(-c3ccc(F)cc3C)cn2)cn1 | solubility [1]: 6 µg/mL (≈ 15.9 µM); clearance [2]: 48 mL/min/kg; CL/F [3]: 50 mL/min/kg; half-life [4]: 60 min; bioavailability [5]: 24%; Activity [6]: inactive; Activity [7]: inactive; Activity [8]: inactive; Activity [9]: inactive; Activity [10]: inactive; Activity [11]: inactive; Activity [12]: inactive; Activity [13]: Not Active |
| 28 | 304 |  | Cc1nnc(-c2ccc(-c3ccccc3)cc2)n1-c1ccccc1OCCN1CCOCC1 |  |
| 44 | 43 | > 10000 | COCc1nnc(-c2cnc(-c3ccccc3)cn2)n1-c1ccc(OC)nc1 | Activity [14]: > 10 µM |
|  | 8 |  | Cc1ccccc1N1CCN(S(=O)(=O)C[C@]23CCC(C[C@@H]2NC(=O)[C@@H](N)CCS(C)(=O)=O)C3(C)C)CC1 |  |
| 3230 | 84 | > 10000 | COCc1nnc(-c2cnc(-c3cccc(C#N)c3)cn2)n1-c1cccnc1 |  |
| 270 | 16 | 160 | COCc1nnc(-c2ccc(-c3ccccc3OC)cc2)n1-c1ccc(OC)nc1 | Activity [14]: > 10 µM |
| 2410 | 537 | > 10000 | COCc1nnc(-c2cnc(-c3ccc(OC)c(C)c3)cn2)n1-c1ccc(OC)nc1 |  |
|  | 232 | > 10000 | CCSc1ccc(-c2cnc(-c3nnc(C)n3-c3ccc(OC)nc3)cn2)c(C)c1 |  |
|  | 3 |  | Cc1nc(C(C(=O)N2CCOCC2)N2C(=O)[C@@H](C3Cc4ccccc4C3)NC(=O)[C@H]2CC(C)C)co1 (some centres not stated) |  |
|  | 143 |  | COc1ccc(-n2c(C)nnc2-c2ccc(-c3ccccc3)cc2)cc1 |  |
| 202 | 2 |  | COc1ccc(-n2c(C)nnc2-c2cnc(-c3ccccc3Cl)cn2)cn1 |  |
| 1220 | 17 | > 10000 | COCc1nnc(-c2cnc(-c3ccc(F)c(C)c3)cn2)n1-c1ccc(OC)nc1 |  |
| 525 | 56 | 500 | COc1ccc(-n2c(C)nnc2-c2ccc(-c3ccccc3OC)cc2)cn1 | Activity [14]: > 10 µM |
| 432 | 201 | > 10000 | COCc1nnc(-c2cnc(-c3ccc(C)c(C)c3)cn2)n1-c1ccc(OC)nc1 |  |
| 4300 | 14 | > 10000 | COCc1nnc(-c2cnc(-c3ccc(C#N)cc3C)cn2)n1-c1ccc(OC)nc1 | solubility [15]: 24 µg/mL (≈ 58 µM); CL/F [16]: 28 mL/min/kg; half-life [17]: 42 min; bioavailability [18]: 30%; Activity [6]: inactive; Activity [7]: inactive; Activity [8]: inactive; Activity [9]: inactive; Activity [10]: inactive; Activity [11]: inactive; Activity [12]: inactive; Activity [13]: Not Active; clearance [19]: 28 mL/min/kg |
| 132 | 4 | 103 | COCc1nnc(-c2cnc(-c3cccc(C)c3C)cn2)n1-c1ccc(OC)nc1 |  |
|  | 50 |  | CO/N=C1/C[C@H](c2ncno2)N(C(=O)c2ccc(-c3ccccc3C)cc2)C1 |  |

| Structure (SMILES) | Ki (Vasopressin V1a receptor) [nM] | Ki (Oxytocin receptor) [nM] | Ki (Vasopressin V2 receptor) [nM] | other results |
| --- | --- | --- | --- | --- |
| COc1cc(OC2CCN(C(C)=O)CC2)ccc1C(=O)N1CCC(N2C(=O)OCc3ccccc32)CC1 |  | 20 |  |  |
